Source: BindingDB's records for doi:10.1124/jpet.302.1.359 (Bayer, 2002)
pKi: −log10 of the molar value.

What was measured:
[1] = target: Cannabinoid receptor 2 (Homo sapiens, UniProt P34972)
[2] = target: Cannabinoid receptor 1 (Homo sapiens, UniProt P21554)
Sequence of Cannabinoid receptor 1 (P21554 whole entry): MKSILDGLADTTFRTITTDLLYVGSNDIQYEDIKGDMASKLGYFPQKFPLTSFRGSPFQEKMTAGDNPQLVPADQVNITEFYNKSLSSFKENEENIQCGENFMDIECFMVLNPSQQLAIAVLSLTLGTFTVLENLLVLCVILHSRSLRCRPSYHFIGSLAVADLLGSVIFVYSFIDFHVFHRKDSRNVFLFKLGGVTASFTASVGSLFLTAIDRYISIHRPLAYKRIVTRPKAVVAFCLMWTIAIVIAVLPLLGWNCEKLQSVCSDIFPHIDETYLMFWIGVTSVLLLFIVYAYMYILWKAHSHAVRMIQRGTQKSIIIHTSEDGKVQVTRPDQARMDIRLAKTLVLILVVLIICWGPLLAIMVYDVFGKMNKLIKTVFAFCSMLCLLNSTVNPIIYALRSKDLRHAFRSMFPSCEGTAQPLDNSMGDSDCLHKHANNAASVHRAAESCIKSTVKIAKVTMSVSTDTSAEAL

Sequence of Cannabinoid receptor 2 (P34972 whole entry): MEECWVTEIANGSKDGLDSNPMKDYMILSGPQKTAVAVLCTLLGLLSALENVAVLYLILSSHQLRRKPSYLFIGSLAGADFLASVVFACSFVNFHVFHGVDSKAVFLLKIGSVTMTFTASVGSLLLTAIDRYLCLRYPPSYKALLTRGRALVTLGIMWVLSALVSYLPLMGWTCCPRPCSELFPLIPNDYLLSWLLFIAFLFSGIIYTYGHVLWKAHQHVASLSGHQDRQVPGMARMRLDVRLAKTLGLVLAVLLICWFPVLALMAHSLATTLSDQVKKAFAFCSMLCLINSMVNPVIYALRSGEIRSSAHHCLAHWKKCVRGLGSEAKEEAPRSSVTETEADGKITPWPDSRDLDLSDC

| SMILES | pKi [1] | pKi [2] |
| --- | --- | --- |
| O=S(=O)(CCCC(F)(F)F)Oc1cccc(Oc2ccc(O)c3c2CC(CO)=C3)c1 [KN 38-7271] | 8.22 | – |
| CCCCCCC(C)(C)c1cc(O)c2c(c1)OC(C)(C)[C@@H]1CC=C(CO)CC21 (stereo partly drawn) [(R)-3-(1,1-Dimethyl-heptyl)-9-hydroxymethyl-6,6-dimethyl-6a,7,10,10a-tetrahydro-6H-benzo[c]chromen-1-ol] | – | 9.39 |
